Assay results: US9926588B2, “Method for testing and screening P38 MAP kinase modifiers” (THE TRUSTEES OF THE UNIVERSITY OF PENNSYLVANIA, priority 2007, dated 2018)

Assays:
p38 MAPK = assay: Effect of p38 MAPK activators and inhibitors on SMN complex components relocalization under protein synthesis inhibition; type: cell-based; conditions: for SMN accumulation in the nucleus in the presence of a protein synthesis inhibitor: with a protein synthesis inhibitor such as cycloheximide
Procedure: (§1) HeLa PV were cultured in Dulbecco's modified Eagle's medium (Invitrogen) supplemented with 10% fetal bovine serum (Invitrogen). For screening, cells were seeded onto 384-well plates or, for specific experiments, on glass coverslips the day before treatment. Compounds were added directly into the culture medium to the indicated concentration and the cells were then maintained at 37° C. in a 5% CO2 humidified atmosphere for the duration of the treatment. Dispensing of compounds and other automatic liquid handling steps were performed with a Beckman FX multi-channel system equipped with Hudson Crane robotic systems.
(§2) Indirect immunofluorescence on HeLa PV cells was performed as follows: HeLa cells, plated on glass coverslips, were briefly washed with PBS, fixed in 2% formaldehyde/PBS for 20 minutes at room temperature, permeabilized in 0.5% Triton X-100/PBS for 5 min at room temperature. Cells were blocked in 3% bovine serum albumin for 1 hour at room temperature. Double-label immunofluorescence experiments were performed by separate sequential incubations of each primary antibody, diluted in PBS containing 3% bovine serum albumin, followed by the specific secondary coupled to fluorescein isothiocyanate or TXRD. All incubations were at room temperature for 1 hour. Indirect epifluorescence microscopy was performed with a Nikon Eclipse E800 microscope. Digital images were collected with a Cook Sensicam high performance camera and processed with the IP laboratory software. Processing of samples for immunofluorescence microscopy on cells cultured in 384-well plates was automated and performed with the aid of microplate washers (ELX405, Bio-Tek) in a similar manner to that previously used for individual samples on glass slides. The cells were also stained with DAPI to allow definition of the nucleus in each cell. Digital images were acquired with an automated microscopy and analysis system (IN Cell Analyzer 1000, GE Healthcare). Images were analyzed using automated algorithms with parameters set to calculate mean pixel intensity in each nucleus (defined by DAPI staining and acquired in a separate channel), cytoplasm, and total cell, as well as the relevant calculated ratios of these values.
Next, the effect of p38 MAPK activators and inhibitors on SMN complex components relocalization under conditions of protein synthesis inhibition was monitored.

[1] = test system: SMN sub-cellular localization in HeLa PV cells; assay: SMN sub-cellular localization by indirect immunofluorescence (anti-SMN 2B1); type: cell-based; conditions: for redistribution of SMN from the cytoplasm to the nucleus (accumulation of SMN in the nucleus): short treatment (2-6 hours); for concentration dependence of the effect on nuclear localization of SMN: HeLa cells (CHX FIG. 3b; VPA 2-10 mM FIG. 5b); for immunostaining of SMN showing nuclear accumulation (FIG. 8): emetine, puromycin, thapsigargin 10 μM, tunicamycin 10 μg/ml; for nuclear translocation of SMN at longer times: >24 hr (FIG. 5a)
Procedure: as §1
(§3) The following mouse monoclonal antibodies were used for indirect immunofluorescence: 2B1 (anti-SMN), 2E17 (anti-Gemin2), 12H12 (anti-Gemin3), 10G11 (anti-Gemin5), 6E2 (anti-Gemin7), 10E10 (anti-PABP), 6BG10 (anti-FXR1), Y12 (anti-Sm) and 9H10 (anti-hnRNP A1). An affinity-purified rabbit polyclonal antibody was used to detect Gemin6.
as §2
Based on the results obtained in Example 1, a library of ˜5,000 biologically active small molecules was screened on HeLa cells in 384-well plates. Each well was incubated with a different compound (at 10 μM) and the cells were processed for indirect immunofluorescence. Digital images were collected from six fields in each well and analyzed using imaging algorithms for multiple parameters including relative nuclear and cytoplasmic intensities, and number, size and signal intensity of Gems. DAPI-stained images were collected in a separate channel to define the boundary of each nucleus. Images of individual fields in wells were flagged by the software as showing a significant change in SMN sub-cellular localization. These individual wells were examined directly, and active compounds were re-tested for verification (FIG. 2).

HeLa cells = assay: Cell viability / toxicity of treated cells; conditions: overnight treatment with 10 μM CHX
[2] = test system: Gemins 2, 3, 5, 6 and 7 localization in HeLa cells; assay: Immunostaining of Gemins (SMN complex components) in treated cells; type: cell-based
Procedure: as §3
Indirect immunofluorescence on HeLa PV cells was performed as follows: HeLa cells, plated on glass coverslips, were briefly washed with PBS, fixed in 2% formaldehyde/PBS for 20 minutes at room temperature, permeabilized in 0.5% Triton X-100/PBS for 5 min at room temperature. Cells were blocked in 3% bovine serum albumin for 1 hour at room temperature. Double-label immunofluorescence experiments were performed by separate sequential incubations of each primary antibody, diluted in PBS containing 3% bovine serum albumin, followed by the specific secondary coupled to fluorescein isothiocyanate or TXRD. All incubations were at room temperature for 1 hour. Indirect epifluorescence microscopy was performed with a Nikon Eclipse E800 microscope. […] Images were analyzed using automated algorithms with parameters set to calculate mean pixel intensity in each nucleus (defined by DAPI staining and acquired in a separate channel), cytoplasm, and total cell, as well as the relevant calculated ratios of these values. […]

[3] = test system: hnRNP A1, PABP, FXR1 and snRNPs localization in HeLa cells; assay: Localization of other nuclear and cytoplasmic proteins (specificity); type: cell-based; conditions: 6 hrs of 10 μM CHX (FIG. 3c)
Procedure: as §3
Indirect immunofluorescence on HeLa PV cells was performed as follows: HeLa cells, plated on glass coverslips, were briefly washed with PBS, fixed in 2% formaldehyde/PBS for 20 minutes at room temperature, permeabilized in 0.5% Triton X-100/PBS for 5 min at room temperature. Cells were blocked in 3% bovine serum albumin for 1 hour at room temperature. Double-label immunofluorescence experiments were performed by separate sequential incubations of each primary antibody, diluted in PBS containing 3% bovine serum albumin, followed by the specific secondary coupled to fluorescein isothiocyanate or TXRD. All incubations were at room temperature for 1 hour. Indirect epifluorescence microscopy was performed with a Nikon Eclipse E800 microscope. […] Images were analyzed using automated algorithms with parameters set to calculate mean pixel intensity in each nucleus (defined by DAPI staining and acquired in a separate channel), cytoplasm, and total cell, as well as the relevant calculated ratios of these values.

COc1ccc(C[C@H]2NC[C@H](O)[C@H]2OC(C)=O)cc1 [Anisomycin]
localization of SMN complex components, Anisomycin alone (p38 MAPK; treated cell (FIG. 6: 1 μg/ml Anisomycin)): accumulate in the cytoplasm
SMN accumulation in the nucleus in the presence of a protein synthesis inhibitor (p38 MAPK): inhibit SMN accumulation in the nucleus

Oc1ccc(-c2nc(-c3ccncc3)c(-c3ccc(F)cc3)[nH]2)cc1 [SB202190]
localization of SMN complex components, p38 MAPK inhibitor combined with Anisomycin (p38 MAPK; 10 μM SB202190 + 1 μg/ml Anisomycin, HeLa cells, FIG. 6): accumulation of SMN complex components in the nucleus
localization of SMN complex components, p38 MAPK inhibitor combined with CHX (p38 MAPK; 10 μM SB202190 + 10 μM CHX, HeLa cells, FIG. 6): accumulation of SMN complex components in the nucleus

CCOC(=O)CN1C(=O)CC(C[C@@H](O)[C@@H]2C[C@@H](C)C[C@H](C)C2=O)CC1=O [cycloheximide-N-ethylethanoate]
redistribution of SMN from the cytoplasm to the nucleus (accumulation of SMN in the nucleus) ([1]; HeLa cells): did not show any effect

C[C@@H]1C[C@@H]([C@H](O)CC2CC(=O)NC(=O)C2)C(=O)[C@@H](C)C1 [cycloheximide]
cell viability (HeLa cells): no reduction in cell viability
relocation of SMN complex components (Gemins) to the nucleus ([2]; HeLa cells, 6 hours 10 μM CHX (FIG. 4), Gemin3 and Gemin5 excepted): causes most of the components of the SMN complex to accumulate in the nucleus
treatment time after which little SMN was detected in the cytoplasm ([1]; HeLa cells): ≥ 8 h
treatment time after which the effect on SMN redistribution was evident ([1]; HeLa cells): 2 h
concentration dependence of the effect on nuclear localization of SMN [1]: concentration-dependent
concentrations exhibiting a clear effect on redistribution of SMN from the cytoplasm to the nucleus ([1]; HeLa cells, FIG. 3a,b): 0.1 to 40 µM
redistribution of SMN from the cytoplasm to the nucleus (accumulation of SMN in the nucleus) ([1]; HeLa cells): most striking accumulation of SMN in the nucleus
reversibility of SMN nuclear accumulation ([1]; cells washed and placed in fresh medium devoid of cycloheximide): reversible
localization of other nuclear and cytoplasmic proteins (hnRNP A1, PABP, FXR1, snRNPs) [3]: not significantly affected

CC[C@H]1CN2CCc3cc(OC)c(OC)cc3[C@@H]2C[C@@H]1C[C@H]1NCCc2cc(OC)c(OC)cc21 [emetine]
redistribution of SMN from the cytoplasm to the nucleus (accumulation of SMN in the nucleus) ([1]; HeLa cells): showed the same effect as cycloheximide
immunostaining of SMN showing nuclear accumulation (FIG. 8) ([1]; HeLa cells): nuclear accumulation

COc1ccc(C[C@H](N)C(=O)N[C@H]2[C@@H](O)[C@H](n3cnc4c(N(C)C)ncnc43)O[C@@H]2CO)cc1 [puromycin]
redistribution of SMN from the cytoplasm to the nucleus (accumulation of SMN in the nucleus) ([1]; HeLa cells): showed the same effect as cycloheximide
immunostaining of SMN showing nuclear accumulation (FIG. 8) ([1]; HeLa cells): nuclear accumulation

O=C(CCCCCN1C(=O)c2cccc3cccc(c23)C1=O)NO [scriptaid]
nuclear translocation of SMN at longer times ([1]; HeLa cells): caused the same effect as protein synthesis inhibitors

C/C=C(/C)C(=O)O[C@H]1C(C)=C2[C@H]([C@@H]1OC(=O)CCCCCCC)[C@@](C)(OC(C)=O)C[C@H](OC(=O)CCC)[C@@]1(O)[C@H]2OC(=O)[C@@]1(C)O [thapsigargin]
redistribution of SMN from the cytoplasm to the nucleus (accumulation of SMN in the nucleus) ([1]; HeLa cells): caused SMN to accumulate in the nucleus
immunostaining of SMN showing nuclear accumulation (FIG. 8) ([1]; HeLa cells): nuclear accumulation

CC(/C=C/C(=O)NO)=C\[C@@H](C)C(=O)c1ccc(N(C)C)cc1 [trichostatin A]
nuclear translocation of SMN at longer times ([1]; HeLa cells): caused the same effect as protein synthesis inhibitors

CCCC(CCC)C(=O)O [valproic acid]
localization of Gemin3 and Gemin5 ([2]; 24 hour treatment with VPA (FIG. 5c)): remain predominantly cytoplasmic
concentration dependence of the effect on nuclear localization of SMN [1]: clear concentration dependence effect
nuclear translocation of SMN at longer times ([1]; HeLa cells): caused the same effect as protein synthesis inhibitors

TNFα
localization of SMN complex component, p38 MAPK activator combined with CHX (p38 MAPK; 150 ng/ml TNFα + 10 μM CHX, HeLa cells, FIG. 6): still remained in the cytoplasm
localization of SMN complex components, p38 MAPK activator alone (p38 MAPK; 150 ng/ml TNFα, HeLa cells, FIG. 6): accumulation of SMN complex components in the cytoplasm
SMN accumulation in the nucleus in the presence of a protein synthesis inhibitor (p38 MAPK): inhibit SMN accumulation in the nucleus

tunicamycin
redistribution of SMN from the cytoplasm to the nucleus (accumulation of SMN in the nucleus) ([1]; HeLa cells): caused SMN to accumulate in the nucleus
immunostaining of SMN showing nuclear accumulation (FIG. 8) ([1]; HeLa cells): nuclear accumulation
